What was measured:
Assay in all cases: relative viability (nuclei count vs DMSO), 5 days (fraction); higher = more cells survive
NCI-H2342 = system: NCI-H2342
How it was run: (§1)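 Lung cancer cell lines were pin-tool dosed in 1536-well plates on the day after seeding, with either a lone drug or a fixed anchor-drug dose plus five library-drug doses (not always all listed) in √10 steps. Nuclei were counted on 4× images after 5 days. Relative viability is the ratio of treated-well to vehicle-well nuclei counts, with each value a median of duplicate plates.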

NCI-H2009 = system: NCI-H2009
How it was run: as §1

NCI-H661 = system: NCI-H661
How it was run: as §1

NCI-H522 = system: NCI-H522
How it was run: as §1

NCI-H460 = system: NCI-H460
How it was run: as §1

NCI-H1648 = system: NCI-H1648
How it was run: as §1

HCC-78 = system: HCC-78
How it was run: as §1

SMILES | relative viability (NCI-H2342; first compound 0.08 µM) | relative viability (NCI-H2342; first compound 0.253 µM) | relative viability (NCI-H2342; first compound 0.8 µM) | relative viability (NCI-H2342; first compound 2.53 µM) | relative viability (NCI-H2342; first compound 8 µM) | relative viability (NCI-H2009; first compound 0.08 µM) | relative viability (NCI-H2009; first compound 0.253 µM) | relative viability (NCI-H2009; first compound 0.8 µM) | relative viability (NCI-H2009; first compound 2.53 µM) | relative viability (NCI-H2009; first compound 8 µM) | relative viability (NCI-H661; first compound 0.08 µM) | relative viability (NCI-H661; first compound 0.253 µM) | relative viability (NCI-H661; first compound 0.8 µM) | relative viability (NCI-H661; first compound 2.53 µM) | relative viability (NCI-H661; first compound 8 µM) | relative viability (NCI-H522; first compound 0.08 µM) | relative viability (NCI-H522; first compound 0.253 µM) | relative viability (NCI-H522; first compound 0.8 µM) | relative viability (NCI-H522; first compound 2.53 µM) | relative viability (NCI-H522; first compound 8 µM) | relative viability (NCI-H460; first compound 0.08 µM) | relative viability (NCI-H460; first compound 0.253 µM) | relative viability (NCI-H460; first compound 0.8 µM) | relative viability (NCI-H460; first compound 2.53 µM) | relative viability (NCI-H460; first compound 8 µM) | relative viability (NCI-H1648; first compound 0.253 µM) | relative viability (NCI-H1648; first compound 0.8 µM) | relative viability (NCI-H1648; first compound 8 µM) | relative viability (HCC-78; first compound 0.08 µM) | relative viability (HCC-78; first compound 0.253 µM) | relative viability (HCC-78; first compound 0.8 µM) | relative viability (HCC-78; first compound 2.53 µM) | relative viability (HCC-78; first compound 8 µM)
O=c1cc(-c2cccc3c2Sc2ccccc2S3)oc(N2CCOCC2)c1 + Nc1nc2[nH]cc(CCc3ccc(C(=O)N[C@@H](CCC(=O)O)C(=O)O)cc3)c2c(=O)[nH]1 [Pemetrexed] (partner 0.2 µM) | 0.703 | 0.817 | 0.718 | 0.725 | 0.848 | 1.08 | 0.96 | 0.983 | 0.966 | 0.957 | 0.9 | 0.942 | 0.962 | 0.874 | 0.899 | 0.844 | 1.13 | 0.851 | 1.03 | 1.12 | 0.0549 | 0.0572 | 0.0622 | 0.0639 | 0.0685 | 0.701 | 0.624 | 0.749 | 0.914 | 0.943 | 0.946 | 0.882 | 0.928
O=c1cc(-c2cccc3c2Sc2ccccc2S3)oc(N2CCOCC2)c1 + CC(=O)c1c(C)c2cnc(Nc3ccc(N4CCNCC4)cn3)nc2n(C2CCCC2)c1=O [Palbociclib] (partner 0.5 µM) | 0.52 | 0.548 | 0.515 | 0.522 | 0.575 | 0.189 | 0.232 | 0.225 | 0.199 | 0.213 | 0.416 | 0.438 | 0.393 | 0.394 | 0.379 | 1.13 | 1.07 | 1.01 | 1.04 | 1 | 0.0971 | 0.159 | 0.13 | 0.154 | 0.135 | 0.324 | 0.281 | 0.302 | 0.506 | 0.458 | 0.427 | 0.417 | 0.487
O=c1cc(-c2cccc3c2Sc2ccccc2S3)oc(N2CCOCC2)c1 + CC(=O)Nc1cccc(-n2c(=O)n(C3CC3)c(=O)c3c(Nc4ccc(I)cc4F)n(C)c(=O)c(C)c32)c1 [Trametinib] (partner 0.02 µM) | 0.744 | 0.897 | 0.736 | 0.716 | 0.935 | 0.257 | 0.236 | 0.24 | 0.213 | 0.208 | 0.565 | 0.649 | 0.527 | 0.514 | 0.471 | 0.725 | 0.988 | 0.724 | 0.815 | 0.734 | 0.147 | 0.163 | 0.113 | 0.091 | 0.1 | 0.515 | 0.427 | 0.389 | 0.712 | 1.03 | 0.677 | 0.786 | 0.544

— the supplement of paper PMC10307832
